Assay results: US12427120B2, “Compositions comprising guaifenesin and flavour compounds containing an isovanillyl group” (SYMRISE AG, priority 2018, dated 2025)
Several values for one entry are separate records, joined by “and”; a condition that tells them apart may be missing. Equal entries are not always repeated. Marks after values point to notes of the source that are not given here.

Assays:
[1] = tested on: HGT-1 cells; assay: Guaifenesin-induced acid (proton) secretion in HGT-1 cells; assay type: cell-based, Human; details: for change in proton secretory activity of HGT-1 cells compared to 10 mM guaifenesin alone: 30 μM co-incubated with 10 mM guaifenesin, from 10 min onwards
Description: Human gastric tumour cell line 1 (HGT-1; Laboisse C. L.; Augeron C.; Couturier-Turpin M. H.; Gespach C.; Cheret A. M.; Potet F., Characterization of a newly established human gastric cancer cell line HGT-1 bearing histamine H2-receptors, Canc. Res., 1982, 42, 1541 to 1548) is a suitable screening tool for detecting the interaction of bitter agents and bitter modulating substances (Liszt, K. I.; Hans, J.; Ley, J. P.; Kock, E.; Somoza, V., Characterization of bitter compounds via modulation of proton secretion in human gastric parietal cells in culture, J. Agric. Food Chem., 2018, 66 (10), 2295-2300.). Therefore, the effect of hesperetin and phyllodulcin on guaifenesin-induced acid secretion in the HGT-1 cell line was determined to predict the modulation of guaifenesin-induced bitterness by hesperetin and phyllodulcin. To this aim, HGT-1 cells were cultured under standard conditions and passaged at ca. 80% confluence. […] HGT-1 cells were pre-loaded with (acetyloxy)methyl-3-(acetyloxy)-10-(dimethylamino)-3′-oxo-spiro[7H-benzo[c]xanthene-7,1′(3H)-isobenzofuran]-ar′-carboxylate and incubated in 130 mM NaCl 130, 4.7 mM KCl, 1.3 mM CaCl2), 1.2 mM MgSO4, 1.2 mM KH2PO4, 11.7 mM glucose, 10 mM HEPES 10, 20 μM 4,4′-Diisothiocyanatostilbene-2,2′-disulfonic acid disodium and 20 μM 5-(N-Ethyl-N-isopropyl)amiloride at pH 7.4. Fluorescence recordings were performed with an excitation wavelength of 488 nm and monitoring the emission wavelengths of 580 nm and 640 nm, respectively, each with a 20 nm bandwidth. […]
The data in Table 1 and Table 2 are presented as mean±SEM derived from 3 biological replicates and 6 to 9 technical replicates. Outliers were identified using the Nalimov test, statistical significance was tested one-way ANOVA with Tukey's range test for multiple comparisons and Bonferroni correction, establishing the threshold for significance at p<0.01. Accordingly, data are marked with *(p<0.007), **(p<0.001) or ***(p<0.0001). Control: untreated cells

[2] = tested on: guaifenesin-induced bitterness perception; assay: Sensory panel test of guaifenesin-induced bitterness perception (sip and spit, scale 0 to 100); assay type: in vivo, human; details: trained panel n=20 to 30
Description: To verify the effect of hesperetin and phyllodulcin on guaifenesin-induced bitterness perception, an aqueous solution of 1.3 g/l guaifenesin (1) was tested against an aqueous solution containing 1.3 g/l guaifenesin and 100 mg/l hesperetin (2) or 7 mg/l phyllodulcin (3) or 100 mg/l homoeriodictyol as comparison (4). The test was conducted as a randomized comparison test in a trained sensory panel (n=20 to 30) via a sip and spit procedure. The panellists tasted both solutions in a blinded fashion and rated bitterness on a scale of 0 to 100.

[3] = tested on: guaifenesin bitterness; details: 200 ppm (200 mg/l, 0.2 mg/ml) HED against 13 mg/ml guaifenesin; cited from earlier work
[4] = 30 μM flavour compound co-incubated with 10 mM guaifenesin, time-point 0 min
[5] = 30 μM flavour compound co-incubated with 10 mM guaifenesin, time-point 5 min
[6] = 30 μM flavour compound co-incubated with 10 mM guaifenesin, time-point 10 min
[7] = 30 μM flavour compound co-incubated with 10 mM guaifenesin, time-point 15 min
[8] = 30 μM flavour compound co-incubated with 10 mM guaifenesin, time-point 20 min
[9] = 30 μM flavour compound co-incubated with 10 mM guaifenesin, time-point 25 min
[10] = 30 μM flavour compound co-incubated with 10 mM guaifenesin, time-point 30 min
[11] = 100 mg/l (racemic) in aqueous 1.3 g/l guaifenesin versus 1.3 g/l guaifenesin

COc1ccc([C@H]2Cc3cccc(O)c3C(=O)O2)cc1O [phyllodulcin, (3S)-/(3R)-8-hydroxy-3-(3-hydroxy-4-methoxy-phenyl)isochroman-1-one]
change in proton secretory activity of HGT-1 cells compared to 10 mM guaifenesin alone [1]: significant decrease
proton secretory activity (log 2 transformed ratio of treated versus untreated cells), mean [1, 4]: −0.08165*
proton secretory activity (log 2 transformed ratio of treated versus untreated cells), mean [1, 5]: 0.0579***
proton secretory activity (log 2 transformed ratio of treated versus untreated cells), mean [1, 6]: 0.07294***
proton secretory activity (log 2 transformed ratio of treated versus untreated cells), mean [1, 7]: −0.04172
proton secretory activity (log 2 transformed ratio of treated versus untreated cells), mean [1, 8]: 0.08512*
proton secretory activity (log 2 transformed ratio of treated versus untreated cells), mean [1, 9]: −0.1469
proton secretory activity (log 2 transformed ratio of treated versus untreated cells), mean [1, 10]: 0.1433***
Modulation versus control (relative difference in bitter ratings) ([2]; 7 mg/l (98 weight %, 95 mol % enantiomeric purity) in aqueous 1.3 g/l guaifenesin versus 1.3 g/l guaifenesin): −15%

COc1ccc([C@@H]2CC(=O)c3c(O)cc(O)cc3O2)cc1O (racemic) [hesperetin, (2S)-/(2R)-5,7-dihydroxy-2-(3-hydroxy-4-methoxyphenyl)-4-chromanone]
change in proton secretory activity of HGT-1 cells compared to 10 mM guaifenesin alone [1]: significant decrease
proton secretory activity (log 2 transformed ratio of treated versus untreated cells), mean [1, 4]: −0.132
proton secretory activity (log 2 transformed ratio of treated versus untreated cells), mean [1, 5]: 0.05735***
proton secretory activity (log 2 transformed ratio of treated versus untreated cells), mean [1, 6]: −0.04329*
proton secretory activity (log 2 transformed ratio of treated versus untreated cells), mean [1, 7]: 0.03955***
proton secretory activity (log 2 transformed ratio of treated versus untreated cells), mean [1, 8]: 0.002334***
proton secretory activity (log 2 transformed ratio of treated versus untreated cells), mean [1, 9]: 0.01577***
proton secretory activity (log 2 transformed ratio of treated versus untreated cells), mean [1, 10]: 0.02592***
Modulation versus control (relative difference in bitter ratings) [2, 11]: −25%

COc1cc([C@@H]2CC(=O)c3c(O)cc(O)cc3O2)ccc1O (racemic) [homoeriodictyol, (2S)-/(2R)-5,7-Dihydroxy-2-(4-hydroxy-3-methoxyphenyl)-4-chromanone, reference compound]
Modulation versus control (relative difference in bitter ratings) [2, 11]: −12%
reduction in guaifenesin bitterness [3]: about 40%

COc1ccccc1OCC(O)CO (stereo not drawn) [guaifenesin, 3-(2-methoxyphenoxy-)1,2-propanediol]
proton secretory activity (log 2 transformed ratio of treated versus untreated cells), mean ([1]; 10 mM guaifenesin alone, time-point 0 min): 0.2711 and 0.2596
proton secretory activity (log 2 transformed ratio of treated versus untreated cells), mean ([1]; 10 mM guaifenesin alone, time-point 5 min): 0.2378 and 0.2475
proton secretory activity (log 2 transformed ratio of treated versus untreated cells), mean ([1]; 10 mM guaifenesin alone, time-point 10 min): 0.2801 and 0.187
proton secretory activity (log 2 transformed ratio of treated versus untreated cells), mean ([1]; 10 mM guaifenesin alone, time-point 15 min): 0.2178 and 0.2259
proton secretory activity (log 2 transformed ratio of treated versus untreated cells), mean ([1]; 10 mM guaifenesin alone, time-point 20 min): 0.323 and 0.265
proton secretory activity (log 2 transformed ratio of treated versus untreated cells), mean ([1]; 10 mM guaifenesin alone, time-point 25 min): 0.3953 and 0.1861
proton secretory activity (log 2 transformed ratio of treated versus untreated cells), mean ([1]; 10 mM guaifenesin alone, time-point 30 min): 0.2706 and 0.2473
